Reference: patent US20030207933A1, “Compositions and methods for increasing the sensitivity of apoptosis-resistant tumor cells to inducers of apoptosis” (priority 2002, published 2003)
“Also recorded” adds a separate entry of the source.

How the values were obtained:
[1] = tested on: HL-60 Bcl-2 cells; experiment: DNA fragmentation (release of 3H-labeled DNA fragments) in Bcl-2-transfected HL-60 cells; assay type: cell-based, human
[2] = tested on: Ramos B lymphoma cells; experiment: Dox cytotoxicity by trypan blue exclusion in Ramos cells; assay type: cell-based; conditions: 24 hr
Protocol: In the present study, the sensitizing activity of W-188 and W-143 was tested in the Raji and Ramos cell lines. Since these two human B lymphoma lines naturally express high levels of anti-apoptotic Bcl-2 proteins, they may be more clinically relevant than the transfected HL-60-Bcl-2 line.
The sensitizing effects of W-143 and W-188 were first tested on these lines in vitro. […] Ramos cells were cultured with different concentrations of Dox with and without W-143 or W-188 at 20 μg/ml for 24 hr, and then viability assessed microscopically by counting at least 100 cells.

[3] = tested on: mice; experiment: Acute single dose toxicity; assay type: in vivo; conditions: 1000 mg/kg single dose
Protocol: The present study assessed the acute single-dose toxicity of W-188 and W-143.
Solutions of W-188 were dissolved in DMSO and injected i.p. in groups of three mice each as well as vehicle control at 500 mg/kg.
Since W-143 is water-soluble, higher doses could be tested.
Therefore, the MTD (maximum tolerated dose) for a single dose of either compound is estimated to be 500 mg/kg.

[4] = tested on: mice; experiment: Multiple dose toxicity with histopathological analysis; assay type: in vivo
Protocol: In the present study, more extensive toxicity studies with histopathological analysis of seven different tissues was performed on W-143 at a commercial lab.
Groups of six mice (3 male and 3 females) each were given three i.p. injections at two day intervals of vehicle, doxorubicin 5 mg/kg alone, W-143 200 mg/kg alone or both together. On day 5 and day 15 after the last injection, mice were sacrificed, necropsied, and tissue samples processed. Tissues examined include bone marrow, liver, heart, small and large intestine, 1 sex organ, and kidney.

[5] = tested on: RIF-1 fibrosarcoma; experiment: RIF-1 fibrosarcoma tumor growth in vivo; parameters: species or system mice; conditions: for Inhibition of tumor growth compared to vehicle control: day 15
From the text: The present study tested in the ability of W-188 to synergize with Dox and inhibit tumor growth in vivo. The RIF-1 fibrosarcoma model was used because this model has been well-characterized, and naturally expresses high Bcl-2 levels and has a consistent growth pattern (Nahabedian, M. Y., et al., J. Natl. Can. Inst., 1988, 80:739; Chang, M-J., et al., Cancer Res., 1994, 54:5380; Srivastana, M., et al., J. Biol. Chem., 2001, 276:15481).
Groups of five mice each were inoculated s.c. with RIF-1 cells. The tumors were allowed to grow for 12 days to a size of 0.5 cm diameter, which was designated day 0. The mice were then given five i.p. injections every other day with vehicle, Dox 2.5 mg/kg, Dox 5.0 mg/kg, W-188 100 mg/kg, and Dox 5.0 mg/kg+W-188 100 mg/kg. The mice were weighed and the tumor size measured every day.
The protocol was similar to that described for the W-188 experiment in Example 8, except that in this study, mice with established tumors received only three injections of W-143 or Dox every other day starting on day 0.

[6] = tested on: Bcl-2; experiment: Western blot for expression of Bcl-2 in RIF-1 tumors in vivo; parameters: species or system mice; conditions: day 15
From the text: Cells were dissociated, lysed, and the nuclei and mitochondria separated by differential centrifugation. RIF-1 cells cultured in vitro were processed in a similar manner as a positive control. Equal amounts of protein extracts were separated by electrophoresis and analyzed by Western blot for expression of Bcl-2. […] The pattern of Bcl-2 expression was similar in the nuclei, although the overall levels were lower than in the mitochondria. […] Most likely, this discrepancy can be explained by the fact that this line is transfected with exogenous Bcl-2, whereas the RIF-1 line expresses endogenous Bcl-2 under control of its natural promoter. […] Alternatively, W-188 and W-143 may differ in their mechanisms of action, although this conclusion seems less likely in view of the structural similarity of these two compounds.

[7] = Water solubility; assay type: physicochemical
[8] = Body weight of RIF-1 tumor bearing mice
From the text: Groups of five mice each were inoculated s.c. with RIF-1 cells. The tumors were allowed to grow for 12 days to a size of 0.5 cm diameter, which was designated day 0. […] The mice were weighed and the tumor size measured every day.

[9] = W-143 100 mg/kg alone, data not shown

CCC1=C(C)C(=O)NC1C (centres unmarked) [W-143, 3,5-dimethyl-4-ethyl-2-oxo-2,5-dihydropyrrole]
Sensitization to etoposide-induced apoptosis [1]: sensitize 1L-60-Bcl-2 cells to etoposide-induced apoptosis
% DNA Fragmentation ([1]; Exp 5, etoposide 10 μM + compound 10 μM): 34%
Toxicity of compound alone ([2]; 20 μg/ml, no Dox): completely nontoxic
Increase of cytotoxicity mediated by Dox ([2]; compound 20 μg/ml + Dox, FIG. 6): over two fold
Deaths [3]: All three mice injected with 1000 mg/kg of W-143 died within 24 h
Histopathology ([4]; W-143 200 mg/kg alone, three i.p. injections at two day intervals, day 5): minor vacuolar changes in the liver
Histopathology ([4]; W-143 200 mg/kg alone, day 15): all tissues were normal
Histopathology ([4]; doxorubicin 5 mg/kg + W-143 200 mg/kg, three i.p. injections, day 5): minor vacuolar changes in the liver
Histopathology ([4]; doxorubicin 5 mg/kg + W-143 200 mg/kg, day 15): all tissues were normal
Inhibition of tumor growth compared to vehicle control ([5]; Dox + W-143 100 mg/kg, p=0.005): 70%
Inhibition of tumor growth compared to vehicle control ([5]; Dox + W-143 200 mg/kg, p=0.001): 83%
Effect on tumor growth [5, 9]: did not decrease tumor growth
Effect on tumor growth ([5]; W-143 200 mg/kg alone, three injections, FIG. 14): only a small effect on tumor growth
Effect on tumor growth ([5]; W-143 + Dox combined): synergistically inhibited tumor growth
Bcl-2 expression in tumor cell mitochondria ([6]; Dox + W-143, FIG. 16 lane 10): no detectable Bcl-2
Bcl-2 expression in tumor cell mitochondria ([6]; W-143 alone, FIG. 16): expressed high levels of Bcl-2
Water solubility [7]: water soluble; also recorded: water-soluble
Body weight ([8]; Dox + W-143 100 mg/kg, any time point): did not show any greater weight loss
Body weight ([8]; Dox + W-143 200 mg/kg, day 13): weighed just as much as mice treated with Dox alone on day 13
Body weight [8, 9]: weighed similar to the vehicle control mice
